PMC6413231, “o-Vanillin Derived Schiff Bases and Their Organotin(IV) Compounds: Synthesis, Structural Characterisation, In-Silico Studies and Cytotoxicity” (International Journal of Molecular Sciences, 2019)
Where two headings read alike, the source gives them in different places. Blank lines part the entries; values can stand above or below the compound they belong to.

Legend:
[1] = test system: B-DNA (PDB ID: 1BNA) dodecamer d(CGCGAATTCGCG)2; set-up: method as in PMID 27649452; conditions: comparison value for cisplatin; cited from earlier work
[2] = test system: U87 (glioblastoma) cancer cells; experiment: MTT growth inhibition assay, U87; type: cell-based; conditions: 72 h, ± standard error, read-out: Growth Inhibition Concentration, GI50
Protocol: (§1) The Schiff bases and their organotin(IV) compounds were screened for in vitro cytotoxicity against a panel of 12 cancer cell lines: EJ-28 (muscle invasive bladder), RT-112 (minimum-invasive bladder), HT29 (colon), U87 and SJ-G2 (glioblastoma), MCF-7 (breast), A2780 (ovarian), H460 (lung), A431 (skin), DU145 (prostate), BE2-C (neuroblastoma), MIA (pancreatic) and one normal breast cell line (MCF-10A) using the MTT metabolic assay (Figure 6). After 72 h of incubation, a dose-dependent […] effect towards the cancer cell lines was measured at very low micromolar (µM) concentrations of the compounds. The growth inhibition concentration of the Schiff bases and their organotin(IV) compounds required to inhibit 50% cell proliferation relative to the cells that were treated with DMSO (control) are given in Table 2. The stability of these compounds was assessed in DMSO as well as in a mixture of DMSO-H2O. The absorbance obtained from UV-vis spectroscopy analysis was monitored for 72 h, and an unchanged pattern in the spectra was indicative that the compounds were stable in both the solvent systems tested.
(§2) For HT29 (colon), U87 and SJ-G2 (glioblastoma), MCF-7 (breast), A2780 (ovarian), H460 (lung), A431 (skin), Du145 (prostate), BE2-C (neuroblastoma), MIA (pancreas) cell lines and one normal breast cell line, MCF-10A (normal breast), the MTT assays were performed using the following method:
(§3) Stock solutions were prepared as follows and stored at −20 °C: Trial compounds were stored as 10 mM solutions in DMSO. All cell lines were cultured in a humidified atmosphere 5% CO2 at 37 °C. The cancer cell lines were maintained in Dulbecco’s modified Eagle’s medium (DMEM) (Trace Biosciences) supplemented with 10% foetal bovine serum, 10 mM sodium bicarbonate, penicillin (100 IU/mL), streptomycin (100 μg/mL) and glutamine (4 mM). The normal cell line, MCF-10A was cultured in DMEM:F12 (1:1) cell culture media, 5% heat inactivated horse serum, supplemented with penicillin (50 IU/mL), streptomycin (50 μg/mL), 20mM Hepes, L-glutamine (2 mM), epidermal growth factor (20 ng/mL), hydrocortisone (500 ng/mL), cholera toxin (100 ng/mL) and insulin (10 μg/mL).
(§4) Cells in logarithmic growth were transferred to 96-well plates. Cytotoxicity was determined by plating cells in duplicate in 100 μL medium at a density of 2500–4000 cells/well. On day 0 (24 h after plating), when the cells were in logarithmic growth, 100 μL medium, with or without the test agent, was added to each well. After 72 h drug exposure, growth inhibitory effects were evaluated using the MTT (3-[4,5-dimethylthiazol-2-yl]-2,5-diphenyltetrazolium bromide) assay and absorbance read at 540 nm. Percentage growth inhibition was determined at a fixed drug concentration of 25 μM. A value of 100% was indicative of complete cell growth inhibition. Those analogues showing appreciable percentage growth inhibition underwent further dose-response analysis allowing for the calculation of a GI50 value. This value is the drug concentration at which cell growth is 50% inhibited based on the difference between the optical density values on day 0 and those at the end of drug exposure.

[3] = test system: SJ-G2 (glioblastoma) cancer cells; experiment: MTT growth inhibition assay, SJ-G2; type: cell-based; conditions: MTT, 72 h, ± standard error, read-out: Growth Inhibition Concentration, GI50
Protocol: as §1, §2, §3, §4

[4] = test system: A431 (skin) cancer cells; experiment: MTT growth inhibition assay, A431; type: cell-based; conditions: ± standard error, read-out: Growth Inhibition Concentration, GI50
Protocol: as §1, §2, §3, §4

[5] = test system: A2780 (ovarian) cancer cells; experiment: MTT growth inhibition assay, A2780; type: cell-based; conditions: 72 h, ± standard error, read-out: Growth Inhibition Concentration, GI50
Protocol: as §1, §2, §3, §4

[6] = test system: EJ-28 (muscle invasive bladder) cancer cells; experiment: MTT cytotoxicity assay, EJ-28; type: cell-based, human; conditions: EJ-28 cells, 72 h, ± standard error, read-out: Growth Inhibition Concentration, GI50
Protocol: as §1
(§5) The inhibitory effect of the synthesised compounds on the growth of bladder (EJ-28 and RT-112) cancer cells was evaluated by MTT assay. […] RT-112 and EJ-28, human bladder cancer cell lines used in this study (ATCC, Manassas, VA, USA) were cultured in RPMI-1640 (High glucose) medium supplemented with 10% fetal bovine serum containing 1% penicillin. The cells were cultured at 37 °C in a humidified atmosphere of 5% CO2 in air. Cells were seeded in 96-well plates at 6000 cells per well for 24 h, then they were treated with different concentrations of compounds for 72 h. The medium was subsequently removed and the wells were washed with 200 µL of phosphate buffer saline. Aliquots of 20 µL of 3-(4,5-dimethylthiazol-2-yl)-2,5-diphenyltetrazolium bromide (MTT) was added to each well and incubated for 4 h at 37 °C. Aliquots of 200 µL of media was then removed from each well and 200 µL of DMSO was added. Optical density (OD) was measured using an ELISA plate reader at 570 nm. Control wells (100% viability), containing media and DMSO, were included in all the experiments. All data points represented an average of triplicate assays. Cytotoxicity was expressed as CD50, i.e., the concentration that reduced the absorbance of treated cells by 50% with reference to the control (untreated cells).

[7] = test system: H460 (lung) cancer cells; experiment: MTT growth inhibition assay, H460; type: cell-based; conditions: ± standard error, read-out: Growth Inhibition Concentration, GI50
Protocol: as §1, §2, §3, §4

[8] = test system: MIA (pancreatic) cancer cells; experiment: MTT growth inhibition assay, MIA; type: cell-based; conditions: 72 h, ± standard error, read-out: Growth Inhibition Concentration, GI50
Protocol: as §1, §2, §3, §4

[9] = test system: MCF-7 (breast) cancer cells; experiment: MTT growth inhibition assay, MCF-7; type: cell-based; conditions: 72 h, ± standard error, read-out: Growth Inhibition Concentration, GI50
Protocol: as §1, §2, §3, §4

[10] = test system: RT-112 (minimum-invasive bladder) cancer cells; experiment: MTT cytotoxicity assay, RT-112; type: cell-based, human; conditions: RT-112 cells, 72 h, ± standard error, read-out: Growth Inhibition Concentration, GI50
Protocol: as §1, §5

[11] = test system: HT29 (colon) cancer cells; experiment: MTT growth inhibition assay, HT29; type: cell-based; conditions: ± standard error, read-out: Growth Inhibition Concentration, GI50
Protocol: as §1, §2, §3, §4

[12] = test system: BE2-C (neuroblastoma) cancer cells; experiment: MTT growth inhibition assay, BE2-C; type: cell-based; conditions: 72 h, ± standard error, read-out: Growth Inhibition Concentration, GI50
Protocol: as §1, §2, §3, §4

[13] = test system: Du145 (prostate) cancer cells; experiment: MTT growth inhibition assay, Du145; type: cell-based; conditions: ± standard error, read-out: Growth Inhibition Concentration, GI50
Protocol: as §1, §2, §3, §4

[14] = test system: MCF-10A (normal breast) cell line; experiment: MTT growth inhibition assay, MCF10A; type: cell-based; conditions: Homo sapiens, MCF-10A, MCF10A normal breast cells, 72 h, ± standard error, read-out: Growth Inhibition Concentration, GI50
Protocol: as §1, §2, §3, §4

SMILES: N.N.[Cl][Pt][Cl] [Cisplatin, reference compound]
- lowest binding energy (docking with DNA) [1]: -8.65 kcal/mol
- GI50 [2]: 4 ± 1 µM
- GI50 [3]: 0.4 ± 0.1 µM
- GI50 ([4]; 72 h): 2.4 ± 0.3 µM
- GI50 [5]: 1 ± 0.1 µM
- GI50 [6]: 3.97 ± 0.48 µM
- GI50 ([7]; 72 h): 0.9 ± 0.2 µM
- GI50 [8]: 8 ± 1 µM
- GI50 ([9]; MCF-7 cells): 6.5 ± 0.8 µM
- GI50 [10]: 3.56 ± 0.88 µM
- GI50 ([11]; 72 h): 11 ± 2 µM
- GI50 [12]: 1.9 ± 0.2 µM
- GI50 ([13]; 72 h): 1.2 ± 0.1 µM

- GI50 ([2]; Homo sapiens, U-87 MG): 3.1 ± 0.26 µM
- GI50 [3]: 2.4 ± 0.26 µM
- GI50 ([4]; Homo sapiens, A-431, 72 h): 3 ± 0.15 µM
- GI50 ([5]; Homo sapiens): 3 ± 0.06 µM
- GI50 ([7]; Homo sapiens, NCI-H460, 72 h): 3.3 ± 0.21 µM
- GI50 ([8]; Pancreatic cancer cell): 4.5 ± 0.25 µM
- GI50 ([9]; Homo sapiens, MCF7, MCF-7 cells): 2.5 ± 0.12 µM
- GI50 ([11]; Homo sapiens, HT-29, 72 h): 2.2 ± 0.033 µM
- melting point: 173 to 174 °C
- GI50 ([12]; Homo sapiens, BE(2)-C): 2.8 ± 0.2 µM
- GI50 ([13]; Homo sapiens, DU-145, 72 h): 3.4 ± 0.3 µM
SMILES: COc1cccc(/C=N/NC(=S)SCc2ccccc2)c1O [SBoVaH, S-Benzyl-β-N-(2-hydroxy-3-methoxybenzylmethylene) Dithiocarbazate]
- GI50 [14]: 3 ± 0.07 µM
- GI50 ([6]; Homo sapiens): 3.1 ± 0.2 µM
- GI50 ([10]; Homo sapiens): 3.7 ± 0.57 µM
